Measured values from ChEMBL document CHEMBL3758167, “4H-Thieno[3,2-c]chromene based inhibitors of Notum Pectinacetylesterase” (Bioorg Med Chem Lett, 2016).

Tests used:
in vivo [1] = conditions: mouse, po, 10 mg/kg
in vivo [2] = conditions: mouse, po, 10 mg/kg; remark: listed apart in the source
in vivo [3] = conditions: mouse, iv, 1 mg/kg
in vivo [4] = conditions: mouse, iv, 1 mg/kg; remark: listed apart in the source
in vivo [5] = conditions: mouse, po, 10 mg/kg; remark: listed apart in the source

## O=C(O)c1cc2c(s1)-c1ccccc1CC2
In vivo [1]
  AUC: 158 µM·h
In vivo [2]
  Cmax: 64 µM
In vivo [3]
  clearance: 2.4 mL/min/kg
In vivo [4]
  Vd: 0.57 L/kg
In vivo [5]
  bioavailability: 52%
